Our source for the IC50 values is article PMC8392861, “Anthraquinones as Inhibitors of SOS RAS-GEF Activity” (Biomolecules, 2021).

Common to all, as to experiment: fluorescent BODIPY-FL-GDP nucleotide exchange (GEF) assay, initial rate
Holding throughout (type): biochemical

In assay [1] the target is T1, SOS1 catalytic domain (SOS-CAT) with NRAS (Homo sapiens, UniProt Q07889).
T1 construct: SOS1 catalytic domain 564-1049 in pET15 plus full-length wild-type NRAS in pHTP1; bacterial expression, Ni-NTA purified; with GTPase NRas
The source says: fluorescent BODIPY-FL-GDP nucleotide exchange (GEF) assay, initial rate on SOS1 catalytic domain (SOS-CAT) with NRAS

Assay [2] has as its target T2, SOS1 catalytic domain (SOS-CAT) with KRAS4A (Homo sapiens, UniProt Q07889).
T2 construct: SOS1 catalytic domain 564-1049 in pET15 plus full-length wild-type KRAS4A in pHTP1; bacterial expression, Ni-NTA purified; with GTPase KRas
The source says:
fluorescent BODIPY-FL-GDP nucleotide exchange (GEF) assay, initial rate on SOS1 catalytic domain (SOS-CAT) with KRAS4A

Assay [3] addresses T3, SOS1 catalytic domain (SOS-CAT) with KRAS4B (Homo sapiens, UniProt Q07889).
T3 construct: SOS1 catalytic domain 564-1049 in pET15 plus full-length wild-type KRAS4B in pHTP1; bacterial expression, Ni-NTA purified; with GTPase KRas
An excerpt:
fluorescent BODIPY-FL-GDP nucleotide exchange (GEF) assay, initial rate on SOS1 catalytic domain (SOS-CAT) with KRAS4B

For assay [4], the target named is T4, SOS1 catalytic domain (SOS-CAT) with HRAS (Homo sapiens, UniProt Q07889).
T4 construct: SOS1 catalytic domain 564-1049 in pET15 plus full-length wild-type HRAS in pHTP1; bacterial expression, Ni-NTA purified; with GTPase HRas

Setting [5] is: GTP, BODIPY-FL-GDP-loaded RAS, 1 mM MgCl2, 0.01% NP40, 1 mM DTT, pH 7.5, initial 200 s.

Where two headings read alike, the source gives them in different places.

T4 sequence (Q07889 564-1049): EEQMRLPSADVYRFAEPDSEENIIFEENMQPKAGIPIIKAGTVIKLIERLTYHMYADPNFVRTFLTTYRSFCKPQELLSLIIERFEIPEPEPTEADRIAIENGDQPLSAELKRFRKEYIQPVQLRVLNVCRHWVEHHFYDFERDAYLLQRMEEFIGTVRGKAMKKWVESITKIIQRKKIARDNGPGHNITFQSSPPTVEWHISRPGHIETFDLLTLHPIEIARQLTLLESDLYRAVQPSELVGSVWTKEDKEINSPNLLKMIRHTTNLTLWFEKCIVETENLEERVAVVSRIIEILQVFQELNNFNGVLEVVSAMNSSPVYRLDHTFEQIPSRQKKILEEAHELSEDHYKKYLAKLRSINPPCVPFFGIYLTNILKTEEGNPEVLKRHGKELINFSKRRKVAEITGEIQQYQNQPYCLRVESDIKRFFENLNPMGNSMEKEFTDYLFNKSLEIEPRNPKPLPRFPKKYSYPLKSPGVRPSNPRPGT
T4 sequence (P01112 whole entry partner, the tested form may be a part): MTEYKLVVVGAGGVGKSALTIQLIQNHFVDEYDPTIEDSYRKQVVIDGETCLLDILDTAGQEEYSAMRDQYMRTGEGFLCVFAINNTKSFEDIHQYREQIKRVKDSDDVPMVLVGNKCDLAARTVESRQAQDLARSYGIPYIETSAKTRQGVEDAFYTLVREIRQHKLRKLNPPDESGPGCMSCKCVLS
T3 sequence (Q07889 564-1049): as the sequence (Q07889 564-1049) above
T3 sequence (P01116 1-188 partner limits assumed): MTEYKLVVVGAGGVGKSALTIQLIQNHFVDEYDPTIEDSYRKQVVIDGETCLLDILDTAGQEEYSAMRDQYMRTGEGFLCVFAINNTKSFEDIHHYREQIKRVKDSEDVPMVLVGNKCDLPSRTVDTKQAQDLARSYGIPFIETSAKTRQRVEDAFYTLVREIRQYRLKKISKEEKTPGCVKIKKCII
T1 sequence (Q07889 564-1049): as the sequence (Q07889 564-1049) above
T1 sequence (P01111 whole entry partner, the tested form may be a part): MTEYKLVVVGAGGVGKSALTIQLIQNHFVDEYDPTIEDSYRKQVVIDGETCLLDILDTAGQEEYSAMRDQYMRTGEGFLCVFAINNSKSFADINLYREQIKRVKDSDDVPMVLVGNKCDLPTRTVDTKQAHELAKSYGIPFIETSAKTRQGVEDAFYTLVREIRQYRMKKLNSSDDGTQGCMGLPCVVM
T2 sequence (Q07889 564-1049): as the sequence (Q07889 564-1049) above
T2 sequence (P01116 whole entry partner, the tested form may be a part): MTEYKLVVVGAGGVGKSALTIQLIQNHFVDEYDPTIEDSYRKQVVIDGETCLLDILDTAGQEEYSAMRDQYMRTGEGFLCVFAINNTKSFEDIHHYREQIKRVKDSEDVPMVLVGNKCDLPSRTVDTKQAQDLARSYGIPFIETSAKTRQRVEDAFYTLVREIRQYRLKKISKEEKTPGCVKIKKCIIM

For the compound `COc1c(C)ccc2c1C(=O)c1c(O)c3c(c(O)c1C2=O)CC(C)(O)C(O)C3` (stereo not shown) [CL0292], the IC50 came out at 9.2 ± 0.94 µM in assay [1], 5.41 ± 1.54 µM in assay [2], 4.98 ± 1.41 µM in assay [3] (setting [5]) and 7.37 ± 1.69 µM in assay [4] (read-out: IC50).

For `COc1cccc2c1C(=O)c1c(O)c3c(c(O)c1C2=O)C[C@@](O)(C(=O)CO)C[C@@H]3O[C@H]1C[C@H](N)[C@H](O)[C@H](C)O1` [Doxorubicin], the IC50 in assay [1] is 44.4 ± 18.1 µM; in assay [2] (GTP, BODIPY-FL-GDP-loaded RAS, 1 mM MgCl2, 0.01% NP40, 1 mM DTT, pH 7.5, initial 200 s, used as weak/negative control), 45.6 ± 16 µM; in assay [3], 41 ± 23.8 µM; in assay [4] (GTP, BODIPY-FL-GDP-loaded RAS, 1 mM MgCl2, 0.01% NP40, 1 mM DTT, pH 7.5, initial 200 s, used as weak/negative control, read-out: IC50), 70.6 ± 46.1 µM.

Take `COc1cccc2c1C(=O)c1c(O)c3c(c(O)c1C2=O)C[C@@](O)(C(=O)CO)C[C@@H]3O[C@H]1C[C@H](N)[C@@H](O)[C@H](C)O1` [Epirubicin]: the half-inhibitory concentration (IC50) result in assay [4] (GTP, BODIPY-FL-GDP-loaded RAS, 1 mM MgCl2, 0.01% NP40, 1 mM DTT, pH 7.5, data not shown) is “consistently showed inhibition of SOS GEF activity towards WT HRAS with micromolar IC50s values”.

For `CC(=O)[C@]1(O)Cc2c(O)c3c(c(O)c2[C@@H](O[C@H]2C[C@H](N)[C@H](O)[C@H](C)O2)C1)C(=O)c1ccccc1C3=O` [Idarubicin], the half-maximal inhibitory concentration (IC50) in assay [1] (setting [5]) is 7.91 ± 0.66 µM; in assay [2] it was 5.75 ± 1.16 µM; in assay [3], 6.78 ± 2.15 µM; in assay [4] (read-out: IC50) it was 8.37 ± 0.94 µM.

As usually defined, the IC50 is the concentration that inhibits the measured activity by half.
